Experimental data taken from the NIST ThermoML archive (doi:10.1016/j.jct.2014.03.006).
± gives the expanded uncertainty stated by the source.

Test: Boiling temperature at pressure P
Details: Liquid, Ebulliometric method (Recirculating still)

Row | SMILES | Boiling temperature at pressure P (24.5 kPa) [°C] | Boiling temperature at pressure P (34 kPa) [°C] | Boiling temperature at pressure P (43.5 kPa) [°C] | Boiling temperature at pressure P (53 kPa) [°C] | Boiling temperature at pressure P (62.5 kPa) [°C] | Boiling temperature at pressure P (72 kPa) [°C] | Boiling temperature at pressure P (81.5 kPa) [°C] | Boiling temperature at pressure P (91 kPa) [°C] | Boiling temperature at pressure P (101.3 kPa) [°C] | Boiling temperature at pressure P (110 kPa) [°C] | Boiling temperature at pressure P (119.5 kPa) [°C] | Boiling temperature at pressure P (129 kPa) [°C] | Boiling temperature at pressure P (138.5 kPa) [°C] | Boiling temperature at pressure P (148 kPa) [°C] | Boiling temperature at pressure P (157.5 kPa) [°C] | Boiling temperature at pressure P (167 kPa) [°C] | Boiling temperature at pressure P (176.5 kPa) [°C] | Boiling temperature at pressure P (186 kPa) [°C] | Boiling temperature at pressure P (190 kPa) [°C]
1 | CCC/C=C/C=O [(E)-2-hexenal] | 100.4 ± 0.3 | 110 ± 0.3 | 117.2 ± 0.3 | 123.8 ± 0.3 | 129.5 ± 0.3 | 134.6 ± 0.3 | 139 ± 0.3 | 143.0 ± 0.4 | 147.6 ± 0.4 | 150.7 ± 0.4 | 154.0 ± 0.4 | 157.2 ± 0.4 | 160.0 ± 0.4 | 162.8 ± 0.4 | 165.2 ± 0.4 | 168 ± 0.4 | 170.2 ± 0.4 | 172.2 ± 0.4 | 173.1 ± 0.4
2 | CCOC(=O)C(C)CC (configuration not stated) [ethyl 2-methylbutanoate] | 89.0 ± 0.2 | 98.1 ± 0.3 | 105.2 ± 0.3 | 111.1 ± 0.3 | 116.4 ± 0.3 | 121 ± 0.3 | 124.8 ± 0.3 | 128.7 ± 0.3 | 132.5 ± 0.3 | 135.6 ± 0.3 | 138.6 ± 0.3 | 141.4 ± 0.3 | 144.2 ± 0.3 | 147.0 ± 0.3 | 149.4 ± 0.3 | 151.7 ± 0.3 | 154 ± 0.3 | 156.0 ± 0.3 | 156.8 ± 0.3
3 | CCCCCC=O [hexanal] | 85.0 ± 0.3 | 94.2 ± 0.3 | 101.1 ± 0.3 | 107 ± 0.3 | 112.2 ± 0.3 | 116.8 ± 0.3 | 121 ± 0.3 | 124.7 ± 0.3 | 128.8 ± 0.3 | 131.8 ± 0.3 | 134.8 ± 0.3 | 137.5 ± 0.3 | 140.2 ± 0.3 | 143 ± 0.3 | 145.5 ± 0.3 | 147.7 ± 0.3 | 149.7 ± 0.3 | 151.8 ± 0.3 | 152.7 ± 0.3
